In US7998940B2, “Aptamers to von Willebrand factor and their use as thrombotic disease therapeutics” (Archemix Corp., priority 2004, dated 2011):
Like-named read-outs stand apart in the source and are kept apart here. Oligonucleotides are written 5' to 3', each unit as a sugar letter and its base; * is a phosphorothioate linkage, no mark a phosphodiester; rarer units and linkages stand in square brackets, end groups in braces. Plain capitals give the bases only. {PEG20K-NH2} = 20 kDa PEG attached to the 5' nucleotide via an amine linker; [invdT] = inverted (3'-3') thymidine; d = 2'-deoxy (DNA); r = 2'-OH (RNA)

Legend:
[1] = tested on: full length human vWF binding to lyophilized platelets; experiment: Full length human von Willebrand Factor platelet binding assay (FACS); format: cell-based
In short: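 Aptamer titrations (0.1–1000 nM) pre-incubated with 5 nM full-length human vWF, then added to lyophilized platelets plus botrocetin for 15 min at 37 °C in PBS/0.5% BSA. Bound vWF detected by anti-vWF then FITC secondary antibody via flow cytometry MFI; % inhibition versus no-aptamer binding fitted for IC50.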

[2] = tested on: botrocetin induced platelet aggregation; experiment: Inhibition of botrocetin induced platelet aggregation (BIPA) in human PRP; format: cell-based; conditions: for ≦200 nM aptamer gives >90% blocking in BIPA at 6 minutes: botrocetin induced platelet aggregation
Description: In platelet rich plasma isolated from fresh human blood, botrocetin induces platelet aggregation via vWF. Platelet aggregate formation can be measured optically as an increase in % light transmittance on a Chronolog Model 490-4D Aggregometer because aggregation of platelets clarifies the plasma. Aptamers of the invention were analyzed for their ability to inhibit botrocetin induced platelet aggregation (“BIPA”) in human blood. An aptamer of the invention was considered to be active if it could prevent aggregate formation for six minutes post botrocetin addition.
In order to determine the activity of aptamers on live human platelets, BIPA assays were done using freshly prepared platelet rich plasma. Blood was obtained from healthy human donors who had not taken NSAIDS for at least five days. […] Collected blood was pooled into 15 mL conical tubes and was spun at 200 g for 20 minutes. The turbid, yellow layer of platelet rich plasma (“PRP”) was withdrawn from the tubes, pooled, and set aside at room temperature. The remaining blood was spun at 2500 g for ten minutes. The clarified layer of plasma, known as platelet poor plasma (“PPP”), was withdrawn and set aside at room temperature. PRP was aliquoted into cuvettes containing stir bars at a volume of 470 uL. A sample of 500 uL of PPP was aliquoted into a cuvette and placed in the PPP reference cell of the platelet aggregometer. Samples of PRP were prewarmed at 37 degrees C. in the platelet aggregometer for 3-5 minutes before being used in BIPA assays. First, the concentration of botrocetin needed to induce platelet aggregation for each individual donor was determined by titration. This concentration of botrocetin was used for the remainder of the experiment. Next, aptamer was assayed by adding titrations of aptamer (zero, 1 nM to 1000 nM) to prewarmed PRP for one minute, followed by addition of botrocetin. With platelet aggregation, an increase in amplitude of light transmission is seen (FIG. 8). The concentration at which platelet aggregation is blocked at 90% or greater after 6 minutes is reported in the final column of Table 26.

[3] = tested on: full length human vWF (SEQ ID NO 7); experiment: dot blot KD determination and extent of binding, full length human vWF; conditions: for Kd: read-out: Full length human vWF KD;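 on all read-outs here: dot blot binding of aptamers to full length human vWF across a protein titration, incubated 30 minutes at room temperature in 1x DPBS with BSA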
Description: Based on this initial screen, KDs were determined for 3 of the vWF dependent binding sequences using the dot blot assay. […] A 12 point protein titration was used in the dot blot assay (300 nM, 100 nM, 30 nM, 10 nM, 3 nM, 1 nM, 300 pM, 100 pM, 30 pM, 10 pM, 3 pM, 0 pM) in 1×DPBS plus 0.1 mg/mL BSA at room temperature for 30 minutes.
An 8 point protein titration was used in the dot blot binding assay (100n M, 30 nM, 10 nM, 3 nM, 1 nM, 300 pM, 100 pM, 0 pM)) in 1× Dulbecco's PBS containing 0.1 BSA (final volume of 50 uL) for 30 minutes at room temperature.

[4] = biological target: human vWF A1 domain (SEQ ID NO 5) (Homo sapiens, UniProt P04275, T1381A); experiment: dot blot KD determination, human vWF A1 domain; conditions: read-out: Human vWF A1 domain KD
[5] = tested on: rabbit vWF domain A1 binding to lyophilized platelets; experiment: Rabbit von Willebrand Factor domain A1 platelet binding assay (FACS); format: cell-based
Description: Botrocetin induces the binding of the A1 domain of vWF to platelets, as well as the full length protein. It was determined by the inventors that 6-Histidine-tagged rabbit A1 domain vWF purified protein could be induced to bind to human lyophilized platelets with botrocetin. Rabbit A1 binding to platelets is measured with an anti-poly-His antibody followed by incubation with a phycoerythrin conjugated secondary antibody. The degree of binding can be quantified by flow cytometric analysis. The ability of aptamers to block the binding of rabbit A1 to human fixed platelets was correlated with decreased fluorescence signal.
The ability of aptamers of the invention to block rabbit vWF domain A1 binding to lyophilized platelets was also assessed by flow cytometric analysis. Titrations of aptamers (zero, 0.1 nM to 1000 nM) were preincubated briefly with 4 nM of rabbit A1 vWF in FACS buffer (PBS plus 0.5% bovine serum albumin) at room temperature in a volume of 50 uL. Another 50 uL containing 5 uL of lyophilized platelets plus 1 uL of 0.1 U/uL of botrocetin in FACS buffer was added to aptamer/vWF. This reaction was allowed to proceed for 15 minutes at 37 degrees C. after which 200 uL of FACS buffer was added. Platelets were collected by a 6 minute spin at 1470 RCF and the supernatant was discarded. The pellets were resuspended in 100 uL of FACS buffer containing a 1:200 dilution of anti-Penta-HIS-biotin conjugate antibody and were incubated at room temperature for 30 minutes. After the dilution with 200 uL of FACS buffer, the platelets were spun at 1470 RCF for 6 minutes, and the supernatant was discarded. The pellets were resuspended in a 1:100 solution of anti-IgG-PE antibody and were incubated in the dark for 30 minutes at room temperature. The entire 100 uL was diluted into 200 uL of FACS buffer and analyzed immediately by flow cytometric analysis in the FACSCAN. Contaminating debris was eliminated from the analysis by drawing a gate around the population of single and aggregated platelets and collecting data from 10000 events. Median fluorescent intensity (“MedFI”) readings (which are generally equivalent to the MFI readings, described in Example 3a above, for comparative purposes) were quantified for each sample analyzed by flow cytometry. Background MedFI was subtracted from all data points. Percent inhibition was reported by calculating the percent value of binding of […] to platelets in the presence of aptamer at a given concentration relative to binding in the absence of any aptamer (see FIG. 7). IC50 values were determined by fitting the percent inhibition of vWF binding to platelets as a function of aptamer concentration to the equation: % inhibition=% inhibitionmax/(1+IC50/aptamer conc.)

[6] = tested on: rabbit vWF A1 domain (SEQ ID NO 6); experiment: dot blot KD determination, rabbit vWF A1 domain; format: binding
Description: A 12 point protein titration was used in the dot blot assay (300 nM, 100 nM, 30 nM, 10 nM, 3 nM, 1 nM, 300 pM, 100 pM, 30 pM, 10 pM, 3 pM, 0 pM) in 1×DPBS plus 0.1 mg/mL BSA at room temperature for 30 minutes.

[7] = tested on: vWF dependent platelet plug formation, human whole blood; experiment: PFA-100 assay, human whole blood; format: cell-based; conditions: citrated human whole blood; minimum concentration that extends closing time to 300 seconds
Excerpt: Another assay of this Example, using the PFA-100 instrument, is an agonist independent but vWF dependent assay that uses the PFA-100 instrument (Harrison et al., Clin. Lab. Haem., v24, p 225-32 (2002)). The PFA-100 simulates the formation of a hemostatic plug under conditions of high shear force in vivo by recording the time required for a platelets to aggregate and block the flow of citrated whole blood through a microscopic aperture in a membrane coated with collagen and either epinephrine or ADP. This activity is von Willebrand factor dependent as high MW vWF multimers bind to immobilized collagen on the membrane and then bind to and activate platelets because of the shear force induced by drawing the blood through the microscopic aperture.
Fresh whole blood was collected from healthy non-steroidal anti-inflammatory drug (NSAID) free cynomolgus macaques. Aptamers were diluted with physiological saline from Aldon (Cat#9420306) in no-additive vacutainer tubes (Cat#366434, Becton Dickenson). Samples were loaded onto collagen/epinephrine test cartridges (Cat#B4170-20A, Dade Behring) which were used in the PFA-100 machine (Dade Behring). Trigger solution (Cat#B4170-50, Dade Behring) was used in the self-test and to pre-wet the test cartridges. O-ring cleaning pads (Cat#B4170-73, Dade Behring) were used in the self-test and in the O-ring cleaning process.
A self-test, which included an O-ring cleaning process, was always run on the PFA-100 machine before running any samples to ensure proper function of the machine.
During the entire experiment, the tubes of whole blood were gently inverted every five minutes to prevent settling.
In order to assay the titration of aptamer in whole blood, the aptamer was added to no-additive vacutainer tubes and diluted to the desired concentrations (ex: 0 nM, 1 nM to 1000 nM) using physiological saline such that the final volume was […]. When the PFA-100 was ready to run the next set of samples, 1940 μl of whole blood was added to the tube containing a concentration of aptamer. This tube was gently inverted three times to thoroughly mix the aptamer and blood. Samples were always run in duplicate on the PFA-100 machine. 800 μl of this blood mixture was loaded into the collagen/epinephrine test cartridges. The test cartridges were loaded onto the PFA-100 machine. The time of occlusion of the aperture was measured by the PFA-100, with a maximal time of 300 seconds. We estimate the IC95 in this assay to be the minimum concentration of aptamer that extends the closing time to 300 seconds.

[8] = 5 nM full length human vWF, lyophilized platelets, botrocetin, read-out: Inhibition of full length hVWF binding in FACS assay, Average IC50
[9] = rRdY minimers, 8 point titration 0-300 nM
[10] = 4 nM rabbit A1 vWF, lyophilized platelets, botrocetin, read-out: Inhibition of rabbit VWF A1 domain binding in FACS assay, Average IC50
[11] = 5 nM full length human vWF, lyophilized platelets, botrocetin, units in the cell: lower bound pM, upper bound nM, read-out: Inhibition of full length hVWF binding in FACS assay, IC50 range
[12] = DNA 2 minimers, 9 point protein titration
[13] = 4 nM rabbit A1 vWF, lyophilized platelets, botrocetin, units in the cell: lower bound pM, upper bound nM, read-out: Inhibition of rabbit VWF A1 domain binding in FACS assay, IC50 range

Sequence of human vWF A1 domain (SEQ ID NO 5) (P04275 with tags, fused parts or gaps T1381A): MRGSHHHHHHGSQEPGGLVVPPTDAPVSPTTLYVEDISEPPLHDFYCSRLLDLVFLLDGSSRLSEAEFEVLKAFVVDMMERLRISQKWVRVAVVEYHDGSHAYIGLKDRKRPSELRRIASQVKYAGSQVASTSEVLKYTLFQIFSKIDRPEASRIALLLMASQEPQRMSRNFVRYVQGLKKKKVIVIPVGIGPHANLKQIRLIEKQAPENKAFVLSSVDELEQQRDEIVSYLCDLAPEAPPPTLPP
Sequence of rabbit vWF A1 domain (SEQ ID NO 6) (as listed by the source): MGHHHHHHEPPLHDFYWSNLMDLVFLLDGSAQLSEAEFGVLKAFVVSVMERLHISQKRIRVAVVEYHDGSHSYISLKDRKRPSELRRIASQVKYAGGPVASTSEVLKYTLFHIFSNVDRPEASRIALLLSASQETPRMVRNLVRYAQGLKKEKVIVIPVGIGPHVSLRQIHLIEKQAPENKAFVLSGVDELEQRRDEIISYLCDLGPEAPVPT
Sequence of rabbit vWF domain A1 binding to lyophilized platelets (as listed by the source): as above

Row | Substance | ≦200 nM aptamer gives >90% blocking in BIPA at 6 minutes [2] | IC50 [1, 8] [pM] | IC50 [5, 10] [pM] | IC50 [1, 11] [pM] | Kd [3, 12] [nM] | Kd [6, 12] [nM] | further results
1 | ATGAGAGTGCTGGTGGATTGCTCAGGTCTGCTGGCTGCTTACTCTCAT (DNA, backbone not given here) [ARC845, minimized DNA aptamer] | no activity | – | – | – | – | – | Inhibition of full length hVWF binding in FACS assay, Average IC50 ([1]; 5 nM full length human vWF, lyophilized platelets, botrocetin): no activity; Inhibition of full length hVWF binding in FACS assay, IC50 range ([1]; 5 nM full length human vWF, lyophilized platelets, botrocetin, both bounds in nM): no activity; Full length human vWF KD ([3]; DNA 1 minimers): No binding; Kd ([4]; DNA 1 minimers, competition dot blot, 10 nM protein): 10 nM; Inhibition of rabbit VWF A1 domain binding in FACS assay, Average IC50 ([5]; 4 nM rabbit A1 vWF, lyophilized platelets, botrocetin): no activity; Inhibition of rabbit VWF A1 domain binding in FACS assay, IC50 range ([5]; 4 nM rabbit A1 vWF, lyophilized platelets, botrocetin, both bounds in nM): no activity; Kd ([6]; DNA 1 minimers): 56 nM
2 | GGAGCCACACGACATTGGCGGGCGAGAGCCACGCATGGCTCC (rGrGrArGdCdCrAdCrAdCrGrAdCrAdTdTrGrGdCrGrGrGdCrGrArGrArGdCdCrAdCrGdCrAdTrGrGdCdTdCdC) [SEQ ID NO 192, minimized rRdY aptamer] | yes | 2600 | 2200 | – | – | – | Kd [3, 9]: 2 ± 0.2 nM; Kd [4, 9]: 4 ± 1 nM; Kd [6, 9]: 8 ± 1 nM
3 | GGAGCCACGGGGTGGGTAGACGGCGGGTATGTGGCTCC (rGrGrArGdCdCrAdCrGrGrGrGdTrGrGrGdTrArGrAdCrGrGdCrGrGrGdTrAdTrGdTrGrGdCdTdCdC) [SEQ ID NO 180, minimized rRdY aptamer] | yes | 2000 | 9300 | 731 to 3800 | – | – | Kd [3, 9]: 1 nM; Kd [4, 9]: 11 nM; Kd [6, 9]: 14 nM
4 | GGCGTGCAGTGCC-[PEG]-GGCCGTGCGGTGCCTCCGTCACGCC-3T (DNA GGCGTGCAGTGCCGGCCGTGCGGTGCCTCCGTCACGCCT; chemistry not fully specified) [ARC1029, minimized DNA aptamer] | yes | 609 | 754 | 333 to 1100 | 1.4 ± 0.2 | 6.5 ± 1.5 | inhibition of binding of human vWF to lyophilized human platelets ([1]; in words, FACS, FIG. 7): inhibits binding; inhibition of botrocetin induced platelet aggregation ([2]; in words, human PRP): inhibiting botrocetin induced platelet aggregation; inhibition of binding of rabbit vWF A1 domain to lyophilized human platelets ([5]; in words, FACS, FIG. 7): inhibits binding
5 | GGCGTGCAGTGCCTATTCTAGGCCGTGCGGTGCCTCCGTCACGCC-3T (DNA, [invdT] at 3' end, backbone not given here) [ARC 1027, minimized DNA aptamer] | yes | 1500 | 2000 | 208 to 4200 | 0.8 | 4.6 | IC50 [5, 13]: 462 to 4200 pM
6 | PEG20K-NH2-dGdGdCdGTdGdCdAdGTdGdCdCTTdCdGdGdCdCdGTdGdCdGdGTdGdCdCTdCdCdGTdCdAdCdGdCdC-3T (GGCGTGCAGTGCCTTCGGCCGTGCGGTGCCTCCGTCACGCC; DNA, [invdT] at 3' end, 5' {PEG20K-NH2}, backbone not given here) [ARC1885, 20 kDa PEG conjugate of ARC1172] | – | – | – | – | – | – | ~IC95 PFA-100 (nM) with citrated human whole blood [7]: ~100 nM; IC90 ([2]; human platelet rich plasma): ~50 nM
7 | dGCGTGCAGTGCCT-[PEG]-AGGCCGTGCGGTGCCTCCGTCACGCC-3T (DNA GCGTGCAGTGCCTAGGCCGTGCGGTGCCTCCGTCACGCCT; chemistry not fully specified) [ARC1028, minimized DNA aptamer] | yes | 1200 | 1500 | 473 to 2700 | 1.1 | 3.8 | IC50 [5, 13]: 526 to 2700 pM
